Source: US8415342B2, “Besifloxacin ophthalmic composition for the treatment or control of infection” (Bausch & Lomb Incorporated, priority 2008, dated 2013)
Converted amounts (≈) assume the structure as drawn. Read-outs that look alike come from different tables or passages of the source.

How the values were obtained:
Assay type in all cases: cell-based
Viridans streptococci = experiment: MIC, CLSI broth microdilution, clinical isolates; conditions: Viridans streptococci (N = 156)
Legionella pneumophila = experiment: microbe, parasite or virus in culture
Streptococcus pneumoniae = experiment: MIC, CLSI broth microdilution, clinical isolates
Klebsiella oxytoca = experiment: MIC, CLSI broth microdilution, clinical isolates; conditions: Klebsiella oxytoca (N = 50)
Anaerobic Bacteria = experiment: MIC against anaerobic bacteria (Table 7)
[1] = tested on: Staphylococcus saprophyticus; experiment: MIC, CLSI broth microdilution, clinical isolates; conditions: Staphylococcus saprophyticus (N = 101)
[2] = tested on: Staphylococcus epidermidis; experiment: MIC, CLSI broth microdilution, clinical isolates; conditions: for MIC50: Staphylococcus epidermidis
[3] = tested on: Staphylococcus lugdunensis; experiment: MIC, CLSI broth microdilution, clinical isolates; conditions: Staphylococcus lugdunensis (N = 15)
Staphylococcus hominis = experiment: MIC, CLSI broth microdilution, clinical isolates; conditions: Staphylococcus hominis (N = 50)
Moraxella catarrhalis = experiment: MIC, CLSI broth microdilution, clinical isolates; conditions: Moraxella catarrhalis (N = 101)
Staphylococcus aureus = experiment: MIC, CLSI broth microdilution, clinical isolates; conditions: for MIC50 / MIC90: Staphylococcus aureus
S. epidermidis = experiment: MIC of clinical trial isolates, Studies 373, 433, 434; conditions: Staphylococcus epidermidis, read-out: MIC90
Staphylococcus warneri = experiment: MIC, CLSI broth microdilution, clinical isolates; conditions: Staphylococcus warneri (N = 50)
[4] = tested on: Staphylococcus haemolyticus; experiment: MIC, CLSI broth microdilution, clinical isolates; conditions: Staphylococcus haemolyticus (N = 101)
[5] = tested on: Lancefield group C, F, G streptococci; experiment: MIC, CLSI broth microdilution, clinical isolates; conditions: G streptococci (N = 50)
Streptococcus agalactiae = experiment: MIC, CLSI broth microdilution, clinical isolates; conditions: Streptococcus agalactiae (N = 100)
S. aureus = experiment: MIC of clinical trial isolates, Studies 373, 433, 434; conditions: Staphylococcus aureus
Citrobacter koseri = experiment: MIC, CLSI broth microdilution, clinical isolates; conditions: Citrobacter koseri (N = 100)
Streptococcus pyogenes = experiment: MIC, CLSI broth microdilution, clinical isolates; conditions: Streptococcus pyogenes (N = 101)
Morganella morganii = experiment: MIC, CLSI broth microdilution, clinical isolates; conditions: Morganella morganii (N = 51)
Haemophilus influenzae = experiment: MIC, CLSI broth microdilution, clinical isolates; conditions: for MIC50 / MIC90: Haemophilus influenzae
[6] = Streptococcus pneumoniae (PISP, N = 2)
[7] = Streptococcus pneumoniae (PRSP, N = 2)
[8] = Streptococcus pneumoniae (PSSP, N = 31)
[9] = Streptococcus pneumoniae (all phenotypes, N = 35)
[10] = Clostridium perfringens, Clostridium perfringens (N = 21)
[11] = Staphylococcus epidermidis (CNS, N = 6)
[12] = Staphylococcus epidermidis (CS, N = 9)
[13] = Staphylococcus epidermidis (MSSE, N = 6)
[14] = Staphylococcus epidermidis (all phenotypes, N = 15)
[15] = Staphylococcus aureus (CNS, N = 16)
[16] = Staphylococcus aureus (CS, N = 14)
[17] = Staphylococcus aureus (all phenotypes, N = 30)
[18] = MRSA, Staphylococcus aureus (MRSA, N = 11)
[19] = MSSA, Staphylococcus aureus (MSSA, N = 19)
[20] = Haemophilus influenzae (all phenotypes, N = 40)
[21] = Haemophilus influenzae (bla negative, N = 24)
[22] = Haemophilus influenzae (bla positive, N = 16)

COc1c(N2CCNC(C)C2)c(F)cc2c(=O)c(C(=O)O)cn(C3CC3)c12 (centres unmarked) [Gatifloxacin]
MIC Range (Viridans streptococci): 0.03 to 8 mg/L | MIC50 (Viridans streptococci; read-out: MIC50): 0.25 mg/L (≈ 0.666 µM) | MIC90 (Viridans streptococci; read-out: MIC90): 0.5 mg/L (≈ 1.33 µM) | MIC50 (Legionella pneumophila; Legionella pneumophila): 0.03 mg/L (≈ 0.0799 µM) | MIC90 (Legionella pneumophila; Legionella pneumophila): 0.06 mg/L (≈ 0.16 µM) | MIC Range (Legionella pneumophila; Legionella pneumophila (N = 50)): 0.015 to 0.06 mg/L | % S (Streptococcus pneumoniae; [6]): 100.0% | MIC Range (Streptococcus pneumoniae; [6]): 0.25-0.25 μg/mL | % S (Streptococcus pneumoniae; [7]): 100.0% | MIC Range (Streptococcus pneumoniae; [7]): 0.12 to 0.25 µg/mL | % S (Streptococcus pneumoniae; [8]): 96.8% | MIC50 (Streptococcus pneumoniae; [8]): 0.12 mg/L (≈ 0.32 µM) | MIC90 (Streptococcus pneumoniae; [8]): 0.25 mg/L (≈ 0.666 µM) | MIC Range (Streptococcus pneumoniae; [8]): 0.015 to 4 µg/mL | % S (Streptococcus pneumoniae; [9]): 97.1% | MIC Range (Streptococcus pneumoniae; [9]): 0.015 to 4 µg/mL | MIC50 (Streptococcus pneumoniae; Streptococcus pneumoniae (all phenotypes, N = 35), read-out: MIC50): 0.12 mg/L (≈ 0.32 µM) | MIC90 (Streptococcus pneumoniae; Streptococcus pneumoniae (all phenotypes, N = 35), read-out: MIC90): 0.25 mg/L (≈ 0.666 µM) | % S (Klebsiella oxytoca): 92.0% | MIC50 (Klebsiella oxytoca): 0.03 mg/L (≈ 0.0799 µM) | MIC90 (Klebsiella oxytoca): 0.5 mg/L (≈ 1.33 µM) | MIC Range (Klebsiella oxytoca): 0.015 to 8 mg/L | MIC Range (Anaerobic Bacteria; Bacteroides fragilis (N = 20)): 1 to 16 mg/L | MIC50 (Anaerobic Bacteria; Bacteroides fragilis, Bacteroides fragilis (N = 20), read-out: MIC50): 2 mg/L (≈ 5.33 µM) | MIC90 (Anaerobic Bacteria; Bacteroides fragilis, Bacteroides fragilis (N = 20), read-out: MIC90): 4 mg/L (≈ 10.7 µM) | MIC Range (Anaerobic Bacteria; Clostridium perfringens (N = 21)): 0.5 to 1 mg/L | MIC50 (Anaerobic Bacteria; [10]): 1 mg/L (≈ 2.66 µM) | MIC90 (Anaerobic Bacteria; [10]): 1 mg/L (≈ 2.66 µM) | MIC50 (Anaerobic Bacteria; Cutibacterium acnes, Propionibacterium acnes (N = 21), read-out: MIC50): 0.25 mg/L (≈ 0.666 µM) | MIC90 (Anaerobic Bacteria; Cutibacterium acnes, Propionibacterium acnes (N = 21), read-out: MIC90): 0.5 mg/L (≈ 1.33 µM) | MIC50 (Anaerobic Bacteria; Fusobacterium spp. (N = 21), read-out: MIC50): 1 mg/L (≈ 2.66 µM) | MIC90 (Anaerobic Bacteria; Fusobacterium spp. (N = 21), read-out: MIC90): 4 mg/L (≈ 10.7 µM) | MIC50 (Anaerobic Bacteria; Prevotella spp. (N = 20), read-out: MIC50): 8 mg/L (≈ 21.3 µM) | MIC90 (Anaerobic Bacteria; Prevotella spp. (N = 20), read-out: MIC90): 16 mg/L (≈ 42.6 µM) | MIC Range (Anaerobic Bacteria; Propionibacterium acnes (N = 21)): 0.25 to 0.5 mg/L | % S [1]: 100.0% | MIC50 [1]: 0.12 mg/L (≈ 0.32 µM) | MIC90 [1]: 0.25 mg/L (≈ 0.666 µM) | MIC Range [1]: 0.03 to 0.25 mg/L | % S [2, 11]: 50.0% | % S [2, 12]: 100.0% | MIC Range [2, 12]: 0.06-0.06 μg/mL | % S ([2]; Staphylococcus epidermidis (MRSE, N = 9)): 44.4% | % S [2, 13]: 83.3% | MIC Range [2, 13]: 0.06 to 1 µg/mL | % S [2, 14]: 60.0% | MIC90 [2, 14]: > 8 mg/L | MIC50 ([2]; MRSE, Staphylococcus epidermidis (MRSE, N = 9)): 1 mg/L (≈ 2.66 µM) | MIC50 [2, 11]: 1 mg/L (≈ 2.66 µM) | MIC50 [2, 12]: 0.06 mg/L (≈ 0.16 µM) | MIC50 [2, 13]: 0.06 mg/L (≈ 0.16 µM) | MIC50 [2, 14]: 0.06 mg/L (≈ 0.16 µM) | % S [3]: 73.3% | MIC50 [3]: 0.12 mg/L (≈ 0.32 µM) | MIC90 [3]: 2 mg/L (≈ 5.33 µM) | MIC Range [3]: 0.03 to 8 mg/L | % S (Staphylococcus hominis): 32.0% | MIC50 (Staphylococcus hominis): 1 mg/L (≈ 2.66 µM) | MIC90 (Staphylococcus hominis): 4 mg/L (≈ 10.7 µM) | MIC50 (Moraxella catarrhalis): 0.015 mg/L (≈ 0.04 µM) | MIC90 (Moraxella catarrhalis): 0.015 mg/L (≈ 0.04 µM) | MIC Range (Moraxella catarrhalis): 0.008 to 0.25 mg/L | % S (Staphylococcus aureus; [15]): 6.3% | % S (Staphylococcus aureus; [16]): 92.9% | MIC Range (Staphylococcus aureus; [16]): 0.03 to 1 mg/L | % S (Staphylococcus aureus; Staphylococcus aureus (MRSA, N = 11)): 18.2% | % S (Staphylococcus aureus; Staphylococcus aureus (MSSA, N = 19)): 63.2% | % S (Staphylococcus aureus; [17]): 46.7% | MIC50 (Staphylococcus aureus; [18]): 2 mg/L (≈ 5.33 µM) | MIC90 (Staphylococcus aureus; [18]): > 8 mg/L | MIC50 (Staphylococcus aureus; [19]): 0.06 mg/L (≈ 0.16 µM) | MIC90 (Staphylococcus aureus; [19]): 2 mg/L (≈ 5.33 µM) | MIC50 (Staphylococcus aureus; [15]): 2 mg/L (≈ 5.33 µM) | MIC90 (Staphylococcus aureus; [15]): > 8 mg/L | MIC50 (Staphylococcus aureus; [16]): 0.06 mg/L (≈ 0.16 µM) | MIC90 (Staphylococcus aureus; [16]): 0.25 mg/L (≈ 0.666 µM) | MIC50 (Staphylococcus aureus; [17]): 1 mg/L (≈ 2.66 µM) | MIC90 (Staphylococcus aureus; [17]): > 8 mg/L | MIC90 (S. epidermidis; MRSE, S. epidermidis MRSE-CR, N 24): > 8 mg/L | MIC90 (S. epidermidis; MRSE, S. epidermidis MRSE-CS, N 27): 0.25 mg/L | MIC90 (S. epidermidis; S. epidermidis MSSE-CR, N 10): 8 mg/L | MIC90 (S. epidermidis; S. epidermidis MSSE-CS, N 50): 0.25 mg/L | % S (Staphylococcus warneri): 76.0% | MIC50 (Staphylococcus warneri): 0.12 mg/L (≈ 0.32 µM) | MIC90 (Staphylococcus warneri): 4 mg/L (≈ 10.7 µM) | % S [4]: 40.6% | MIC50 [4]: 2 mg/L (≈ 5.33 µM) | MIC90 [4]: 8 mg/L (≈ 21.3 µM) | % S [5]: 98.0% | MIC Range [5]: 0.06 to 2 mg/L | MIC50 ([5]; read-out: MIC50): 0.12 mg/L (≈ 0.32 µM) | MIC90 ([5]; read-out: MIC90): 0.25 mg/L (≈ 0.666 µM) | % S (Streptococcus agalactiae): 100.0% | MIC Range (Streptococcus agalactiae): 0.12 to 1 mg/L | MIC50 (Streptococcus agalactiae; read-out: MIC50): 0.25 mg/L (≈ 0.666 µM) | MIC90 (Streptococcus agalactiae; read-out: MIC90): 0.25 mg/L (≈ 0.666 µM) | MIC90 (S. aureus; MRSA, S. aureus MRSA-CR, N 17, read-out: MIC90): > 8 mg/L | MIC90 (S. aureus; MRSA, S. aureus MRSA-CS, N 9, read-out: MIC90 (due to limited isolates, highest MIC value is given)): 0.25 mg/L | MIC90 (S. aureus; MSSA, S. aureus MSSA-CR, N 17, read-out: MIC90): > 8 mg/L | MIC90 (S. aureus; MSSA, S. aureus MSSA-CS, N 144, read-out: MIC90): 0.25 mg/L | % S (Citrobacter koseri): 99.0% | MIC50 (Citrobacter koseri): 0.015 mg/L (≈ 0.04 µM) | MIC90 (Citrobacter koseri): 0.12 mg/L (≈ 0.32 µM) | % S (Streptococcus pyogenes): 100.0% | MIC Range (Streptococcus pyogenes): 0.06 to 0.5 mg/L | MIC50 (Streptococcus pyogenes; read-out: MIC50): 0.12 mg/L (≈ 0.32 µM) | MIC90 (Streptococcus pyogenes; read-out: MIC90): 0.25 mg/L (≈ 0.666 µM) | % S (Morganella morganii): 74.5% | MIC50 (Morganella morganii): 0.12 mg/L (≈ 0.32 µM) | MIC90 (Morganella morganii): > 8 mg/L | % S (Haemophilus influenzae; [20]): 100.0% | MIC Range (Haemophilus influenzae; [20]): ≦0.004-0.015 μg/mL | % S (Haemophilus influenzae; [21]): 100.0% | MIC Range (Haemophilus influenzae; [21]): ≦0.004-0.015 μg/mL | % S (Haemophilus influenzae; [22]): 100.0% | MIC Range (Haemophilus influenzae; [22]): ≦0.004-0.015 μg/mL | MIC50 (Haemophilus influenzae; [20]): 0.008 mg/L (≈ 0.0213 µM) | MIC90 (Haemophilus influenzae; [20]): 0.008 mg/L (≈ 0.0213 µM) | MIC50 (Haemophilus influenzae; [21]): 0.008 mg/L (≈ 0.0213 µM) | MIC90 (Haemophilus influenzae; [21]): 0.008 mg/L (≈ 0.0213 µM) | MIC50 (Haemophilus influenzae; [22]): 0.008 mg/L (≈ 0.0213 µM) | MIC90 (Haemophilus influenzae; [22]): 0.008 mg/L (≈ 0.0213 µM)
